From paper PMC9851200, “Multiparameter phenotypic screening for endogenous TFEB and TFE3 translocation identifies novel chemical series modulating lysosome function” (Autophagy, 2022)
Like-named read-outs stand apart in the source and are kept apart here.

Tests used:
endogenous TFEB = test: TFEB nuclear translocation, immunocytochemistry high-content imaging; assay type: cell-based
endogenous TFE3 = test: TFE3 nuclear translocation, immunocytochemistry high-content imaging; assay type: cell-based
SH-SY5Y cells [1] = test: Chemotype enrichment analysis of PKIS2 primary screen hit categories
SH-SY5Y cells [2] = test system: SH-SY5Y cells; further: reference of the scale not given here
SH-SY5Y cells [3] = settings: human
Protocol: Total cell lysis with 5 µL 5% Triton-X 100 (Sigma-Aldrich, T8787) is used as a positive control for the assay and toxicity is expressed as a percentage of luminescence under DMSO conditions.

SH-SY5Y cells [4] = settings: human; remark: listed apart in the source

| SMILES | TFEB % (endogenous TFEB) | TFE3 % (endogenous TFE3) | Outcome (SH-SY5Y cells [1]) | DQ Intensity (SH-SY5Y cells [2]) | DQ Spot (SH-SY5Y cells [2]) | AK (SH-SY5Y cells [3]; SH-SY5Y cells, 24 h, 1 µM) | Nuclear Count (SH-SY5Y cells [4]; SH-SY5Y cells, 24 h, 1 µM) | AK (SH-SY5Y cells [3]) | Nuclear Count (SH-SY5Y cells [4]) | AK (SH-SY5Y cells [3]; 24 h, 1 µM) | Nuclear Count (SH-SY5Y cells [4]; 24 h, 1 µM) |
| --- | --- | --- | --- | --- | --- | --- | --- | --- | --- | --- | --- |
| Nc1n[nH]c2ncc(-c3ccccc3)cc12 [SB-517081] | 4.88% | 10.19% | DQ Only | 121.05 | 122.46 | 82.09 | 74.04 | – | – | – | – |
| Nc1n[nH]c2nnc(-c3ccccc3)cc12 [SB-517389] | 5.21% | 18.57% | DQ Only | 136.15 | 127.72 | 99.42 | 69.78 | – | – | – | – |
| CCCC(=O)Nc1n[nH]c2ncc(-c3cccc4ccccc34)cc12 [SB-642057] | 5.52% | 14.05% | TOXIC | 126.93 | 107.10 | 230.70 | 59.85 | – | – | – | – |
| O=C(Nc1n[nH]c2nc(-c3ccc(O)cc3)ccc12)C1CC1 [SB-710363] | 15.49% | 18.16% | DQ Only | 87.11 | 130.75 | 133.76 | 103.55 | – | – | – | – |
| O=C(Nc1n[nH]c2nc(-c3cccc(O)c3)ccc12)C1CC1 [SB-711805] | 10.76% | 23.15% | TFE3 | 78.27 | 112.05 | 105.72 | 107.31 | – | – | – | – |
| O=C(Nc1n[nH]c2nc(-c3ccccc3)c(Cl)cc12)C1CC1 [SB-734909] | 6.63% | 10.45% | DQ Only | 123.78 | 126.24 | 83.64 | 45.35 | – | – | – | – |
| O=C(Nc1n[nH]c2nc(-c3ccco3)c(Br)cc12)C1CCN(Cc2ccccc2)C1 (stereo not shown) [SB-742034] | 3.21% | 21.82% | TFE3 | 103.44 | 100.36 | 87.38 | 103.32 | – | – | – | – |
| COc1cccc(C2=C(Nc3cccc(C(=O)O)c3)C(=O)NC2=O)c1 [UNC10225061A] | 7.42% | 19.97% | TFE3 | 83.20 | 110.64 | 91.51 | 71.42 | – | – | – | – |
| O=C1NC(=O)C(c2ccccc2)=C1Nc1cccc(O)c1 [UNC10225065A] | 4.40% | 9.48% | – | 107.12 | 107.03 | 106.60 | 88.09 | – | – | – | – |
| CN(C1=C(c2ccccc2)C(=O)NC1=O)c1ccccc1 [UNC10225087A] | 6.00% | 7.91% | TOXIC | 118.90 | 112.39 | 157.36 | 105.86 | – | – | – | – |
| O=C1NC(=O)C(c2ccc(Cl)cc2)=C1Nc1ccc(O)cc1 [UNC10225090A] | 11.08% | 11.41% | – | 92.30 | 94.51 | 134.26 | 99.00 | – | – | – | – |
| O=C1NC(=O)C(c2ccccc2Cl)=C1Nc1cccc(Cl)c1 [UNC10225092A] | 6.93% | 13.82% | – | 81.85 | 94.92 | 96.89 | 114.88 | – | – | – | – |
| Cn1cnc2c(N)ncnc21 [UNC10225123A] | 4.18% | 9.16% | – | 105.88 | 110.82 | – | – | 74.79 | 110.43 | – | – |
| O=C1NC(=O)C(N2CCc3ccccc32)=C1c1cccc(Cl)c1 [UNC10225137A] | 4.79% | 20.87% | TFE3 | 107.62 | 107.27 | 100.20 | 132.24 | – | – | – | – |
| Nc1n[nH]c2nnc(-c3ccccc3)c(-c3ccccc3)c12 [UNC10225185A] | 8.38% | 12.30% | – | 101.09 | 91.84 | 73.45 | 95.91 | – | – | – | – |
| CSc1ccc(NC2=C(c3ccc(Cl)cc3)C(=O)NC2=O)cc1 [UNC10225216A] | 4.27% | 17.03% | – | 88.23 | 93.29 | 104.34 | 155.73 | – | – | – | – |
| COc1ccc(C2=C(Nc3cccc(C(=O)O)c3)C(=O)NC2=O)cc1 [UNC10225244A] | 15.51% | 6.87% | – | 74.93 | 82.38 | 80.02 | 109.36 | – | – | – | – |
| O=C1NC(=O)C(N2CCc3ccccc32)=C1c1ccccc1Cl [UNC10225255A] | 3.84% | 11.28% | DQ Only | 155.35 | 121.27 | 83.08 | 86.30 | – | – | – | – |
| COc1cccc(C2=C(Nc3cc(Cl)c(O)c(Cl)c3)C(=O)NC2=O)c1 [UNC10225267A] | 6.51% | 12.35% | – | 123.38 | 111.15 | 136.91 | 119.42 | – | – | – | – |
| Cc1ccc(C(=O)NC2CCCC2)cc1-c1ccc(C(=O)NCC2CC2)cc1 [UNC10225270A] | 16.20% | 10.04% | – | 84.15 | 81.23 | – | – | – | – | 80.83 | 92.17 |
| COc1cccc(C2=C(Nc3cccc(Cl)c3)C(=O)NC2=O)c1 [UNC10225288A] | 6.04% | 8.01% | – | 106.89 | 108.64 | 133.69 | 80.70 | – | – | – | – |
| COc1ccc(C2=C(Nc3cccc(O)c3)C(=O)NC2=O)cc1 [UNC10225299A] | 8.50% | 15.17% | DQ Only | 174.21 | 115.16 | 102.75 | 77.10 | – | – | – | – |
| CSc1ccc(NC2=C(c3ccccc3Cl)C(=O)NC2=O)cc1 [UNC10225346A] | 6.03% | 14.52% | – | 121.64 | 113.39 | 105.29 | 103.43 | – | – | – | – |
| Cc1ccc(-n2nc(C(C)(C)C)cc2NC(=O)Nc2ccc(OCCN3CCOCC3)c3ccccc23)cc1 [UNC10225354A] | 7.39% | 11.86% | – | 143.22 | 116.14 | – | – | 120.63 | 65.33 | – | – |
| Fc1ccc(-c2ncn(C3CCNCC3)c2-c2ccnc(Oc3ccc(-c4ccccc4)cc3)n2)cc1 [UNC10225377A] | 13.41% | 24.21% | TFE3 + DQ Int | 170.99 | 76.67 | 108.76 | 106.99 | – | – | – | – |
| COc1cccc(C2=C(Nc3cccc(O)c3)C(=O)NC2=O)c1 [UNC10225456A] | 8.57% | 7.19% | – | 100.94 | 105.72 | 101.77 | 97.83 | – | – | – | – |
| O=C1NC(=O)C(c2ccc(Cl)cc2)=C1Nc1cccc(Cl)c1 [UNC10225464A] | 3.70% | 10.27% | – | 132.70 | 111.59 | 74.47 | 85.62 | – | – | – | – |
